Data on eight compounds can be found in article PMC10885115, “Susceptibility of Tetranychus urticae to the Alkaloidal Extract of Zanthoxylum schreberi Bark: Phenotypic and Biochemical Insights for Biotechnological Exploitation” (BioTech, 2024).

Series [1] addresses glutathione S-transferase (GST). Kind of series: GST inhibition in T. urticae protein homogenate. The class given is biochemical, Tetranychus urticae. The conditions noted are these: pure compounds, read-out: GST IC50 (95% interval confidence). The method, then:
(§1) The protein homogenate from T. urticae adult females (n = 50) was prepared by homogenizing them in 500 μL of 0.1 M phosphate buffer (pH 7.2) in an ice bath. After homogenization, the mixture was centrifuged at 12,000× g for 20 min at 4 °C. Both untreated mites and those treated with 0.5% Z. schreberi bark extract were processed similarly. The protein content within the homogenate was quantified using the linearized Bradford micromethod, employing bovine serum albumin as an external standard. A calibration curve was established based on the ratio of absorbance measurements at 590 nm and 450 nm, ensuring linearity with varying protein concentrations. The resulting supernatant was subsequently stored at −20 °C for further enzyme analysis.
GST activity was assessed using 1-chloro-2, 4-dinitrobenzene (CDNB) as the substrate, following a previous procedure. Briefly, the reaction was initiated by mixing CDNB (50 mM in ethanol, 50 µL) and reduced glutathione (50 mM in 0.1 M phosphate-buffered saline (PBS), pH 6.5, 150 µL) in a 5 mL vial with phosphate buffer (0.1 M, pH 6.5 containing 1 mM EDTA, 2.78 mL). Subsequently, 20 µL of protein homogenate was added, and the solution was thoroughly mixed. An aliquot (200 µL) from the resulting mixture was dispensed into a microtiter plate well for measurement, with the procedure performed in triplicate for both biological and technical replicates. The absorbance of each reaction mixture at 340 nm was then recorded using kinetics on a Varioskan LUX 96-well plate reader (Thermo Fisher Scientific, Waltham, MA, USA) after a 10 min duration. The specific GST activity was calculated using the kinetic slope to convert μmoles of product per minute (9.6 mM^−1cm^−1 and 0.3 cm), thereby determining the specific enzyme activity expressed as μmol of substrate/min/mg protein.
(§2) Further investigation involved determining the inhibition of the test enzymes (i.e., AChE, GST, esterase, and PMO). […] The final absorbance measurements of each treatment (At) and control (Ac) were related to the calculated enzyme inhibition percentage using Equation (3). (3) Enzyme Inhibition (%)=[…]
(§3) This determination was performed for each treatment concentration (extract and purified compound) to establish dose–response curves. The IC50 (half-maximal inhibitory concentration in μg/mL for extract and μM for pure compounds) was calculated via nonlinear regression analysis using GraphPad 7.0 (GraphPad Software LLC, Boston, MA, USA).

Series [2] concerns P450 monooxygenase (PMO). Nature of the series: PMO inhibition in T. urticae protein homogenate. The class given is biochemical, Tetranychus urticae. The conditions noted are these: pure compounds, read-out: PMO IC50 (95% interval confidence). The method, then:
as §1
The PMO activity was measured by reducing hydrogen peroxide to oxidize 3,3′,5,5′-tetramethylbenzidine (TMBZ), following a previous procedure. Briefly, the protein homogenate (20 µL) was mixed in a microtiter plate well with 6 mM TMBZ (200 µL) working solution (TMBZ (0.01 g) in methanol (5 mL) and 0.25 M sodium acetate (pH 5.0, 15 mL)) and 3% H2O2 (25 µL) for 30 min at 25 °C. After this incubation period, the absorbance was read at 630 nm on a Varioskan LUX 96-well plate reader (Thermo Fisher Scientific, Waltham, MA, USA). The standard curve of heme peroxidase activity was prepared using Cytochrome C from equine heart (Merck, Milwakee, WI, USA). Total Cytochrome P450 monoxygenase was expressed as µmoles of Cytochrome P450 equivalent units (CPEU)/min/mg protein.
as §2, §3

In series [3] the target is general esterases. Kind of series: General esterase inhibition in T. urticae protein homogenate. The class given is biochemical, Tetranychus urticae. As to conditions: pure compounds, read-out: Est IC50 (95% interval confidence). The method, then:
as §1
Enzyme activity of general esterases was assessed using p-nitrophenylacetate as substrate, following a previous procedure. In brief, the protein homogenate (10 µL) was mixed in a microtiter plate well with 1 mM p-nitrophenyl acetate (200 µL) in 50 mM phosphate buffer pH 7.4. The absorbance was measured at 405 nm after a 10 min incubation period using a Varioskan LUX 96-well plate reader (Thermo Fisher Scientific, Waltham, MA, USA). The specific esterase activity was calculated using the kinetic slope to convert μmoles of product per minute (6.53 mM^−1cm^−1 and 0.3 cm), thereby determining the specific enzyme activity expressed as μmol of substrate/min/mg protein.
as §2, §3

For series [4], the target named is acetylcholinesterase (AChE) and butyrylcholinesterase (BuChE) from various sources. Details: method as in PMID 37073143. The conditions noted are these: most potent of 34 isoquinoline alkaloids; cited from earlier work.
In series [5] the test system is T. urticae females from the unexposed rearing system. Kind of series: Preliminary mortality test with unexposed mites. In kind it is in vivo, Tetranychus urticae. The conditions noted are these: 0.4% chlorfenapyr (positive control), airbrush application. The method, then:
A preliminary trial was conducted to determine the effect of Z. schreberi alkaloidal extract on mites for subsequent experiments, following the methodology outlined by Numa et al. (2015), with certain modifications. Briefly, the bioassay comprised a bean leaf with its underside facing upward, which was placed in a petri dish and its edges lined with cotton moistened using distilled water. Ten T. urticae females from the unexposed rearing system were situated on each leaf. The bioassay on females was driven by their pivotal role in population dynamics, as they are the primary contributors to new individuals. The net reproductive rate per generation (Ro) or population replacement rate is directly dependent on female reproductive capabilities. Consequently, any lethal or sublethal effects observed in females and oviposition will directly influence population growth. This approach led us to assess the potential of the extracts as a promising strategy for pest control, considering their impact on the crucial factor of population expansion. Subsequently, each dish was sealed with plastic wrap post-application of treatments. The evaluated treatments comprised an absolute control (mites without any application), a positive control (chlorfenapyr at 0.4%), and the alkaloidal extract of Z. schreberi at 2%. […] Deceased mites were counted 24 h post-application.

The subject of series [6] is T. urticae adult females (exposed mite population). Nature of the series: Mortality test for Z. schreberi bark extract using exposed mites (leaf-immersion). In kind it is in vivo, Tetranychus urticae. The conditions noted are these: 0.06% chlorfenapyr (PC, commercially recommended dose). The text has this:
The experimental setup involved a transparent cylindrical container with a 3.5 cm diameter filter paper disk placed at the bottom, moistened with distilled water. Bean leaf disks, previously immersed in the respective extract solution and air-dried, were then positioned on the paper disk. The container lid underwent modification, featuring a centrally located circular opening. A metal mesh, perforated with small holes, was affixed using silicone around this opening to facilitate ventilation and prevent mites from escaping. Concentrations ranging from 2, 1, 0.5, and 0.25, to 0.125% of the Z. schreberi bark alkaloidal extract were evaluated diluted in 10% ethanol. These concentrations were selected since they comprise typical doses for botanical pesticides, and, consequently, they were standardized in previous studies in our laboratory to assess botanical extracts. Additionally, three control treatments were employed: an absolute control (application of distilled water), a relative control (10% ethanol), and a positive control (clorfenapyr at 0.06%). Mortality assessments were conducted at 24, 48, and 72 h post-treatment application. The obtained mortality data were adjusted using Schneider–Orelli’s formula (Equation (1)). […]

Series [7] has the same test system. Kind of series: Repellency test for Z. schreberi bark extract using exposed mites. In kind it is in vivo, Tetranychus urticae. The conditions noted are these: 0.06% chlorfenapyr.
The test system is the same in series [8]. Kind of series: Mortality test for extract combined with commercial acaricides (exposed mites). The class given is in vivo, Tetranychus urticae. The method, then:
(§4) Using the same methodology described in the previous section, the following treatments were evaluated in this test: absolute control (application of distilled water), relative control (10% ethanol), positive control A (clorfenapyr at 0.06%), positive control B (cyflumetofen at 0.075%), positive control C (abamectin at 0.05%), treatment 1 (0.5% extract), treatment 2 (0.5% extract + 0.06% clorfenapyr), treatment 3 (0.5% extract + 0.075% cyflumetofen), and treatment 4 (0.5% extract + 0.05% abamectin). Mortality assessments were conducted at 24, 48, and 72 h post-treatment application and adjusted using the Schneider–Orelli formula (Equation (1)). Fecundity was also measured by isolating five surviving females per treatment (after 72 h of exposure to treatments) in petri dishes. The number of eggs oviposited by each female was counted every 24 h over 5 days. Simultaneously with the susceptibility test, the repellent effect of the extract was measured by counting the number of surviving females placed outside the leaves after 24, 48, and 72 h. All laboratory tests were conducted under controlled conditions at 25 ± 2 °C, 60 ± 5% relative humidity, and a 12:12 (light/dark) photoperiod.

The test system is the same in series [9]. Kind of series: Fecundity (oviposition) test for extract combined with commercial acaricides. The class given is in vivo, Tetranychus urticae. As to conditions: 0.06% chlorfenapyr, 0.075% cyflumetofen, 0.05% abamectin, 0.5% extract and combinations M2 to M4; surviving females after 72 h exposure. The method, then: as §4
Series [10] deals with T. urticae. The conditions noted are these: cited from earlier work.
Series [11] relates to T. cinnabarinus Boisdu-Val. Details: method as in PMID 24861930. The conditions noted are these: resistant strain; cited from earlier work.
Series [12] has as its target T1, acetylcholinesterase (AChE) (Tetranychus urticae, UniProt D8V7J9).
T1 sequence (D8V7J9 74-665): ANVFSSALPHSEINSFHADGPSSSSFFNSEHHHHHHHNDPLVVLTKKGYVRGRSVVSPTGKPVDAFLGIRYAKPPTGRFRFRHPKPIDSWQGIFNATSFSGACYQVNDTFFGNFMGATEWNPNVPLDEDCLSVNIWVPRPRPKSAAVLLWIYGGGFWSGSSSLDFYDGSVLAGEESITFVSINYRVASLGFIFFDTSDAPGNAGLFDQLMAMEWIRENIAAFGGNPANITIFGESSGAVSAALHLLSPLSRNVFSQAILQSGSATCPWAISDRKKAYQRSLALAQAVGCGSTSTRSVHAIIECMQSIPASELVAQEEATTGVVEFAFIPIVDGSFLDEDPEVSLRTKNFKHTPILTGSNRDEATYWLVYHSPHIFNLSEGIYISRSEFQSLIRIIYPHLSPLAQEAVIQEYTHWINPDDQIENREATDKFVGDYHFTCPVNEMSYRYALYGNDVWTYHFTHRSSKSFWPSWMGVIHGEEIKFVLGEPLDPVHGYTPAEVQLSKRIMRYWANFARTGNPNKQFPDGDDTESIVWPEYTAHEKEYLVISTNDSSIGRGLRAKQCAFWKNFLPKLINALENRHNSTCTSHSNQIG
The class given is biochemical. As to conditions: pure compounds; T. urticae protein homogenate; read-out: AChE IC50 (95% interval confidence).
Procedure: The protein homogenate from T. urticae adult females (n = 50) was prepared by homogenizing them in 500 μL of 0.1 M phosphate buffer (pH 7.2) in an ice bath. After homogenization, the mixture was centrifuged at 12,000× g for 20 min at 4 °C. […] The protein content within the homogenate was quantified using the linearized Bradford micromethod [40], employing bovine serum albumin as an external standard. A calibration curve was established based on the ratio of absorbance measurements at 590 nm and 450 nm, ensuring linearity with varying protein concentrations [40]. The resulting supernatant was subsequently stored at −20 °C for further enzyme analysis.
The Ellman method was employed to assess AChE activity in both untreated and Z. schreberi-treated mites, following a previous procedure [41]. […]
Further investigation involved determining the inhibition of the test enzymes (i.e., AChE, GST, esterase, and PMO). […] The final absorbance measurements of each treatment (At) and control (Ac) were related to the calculated enzyme inhibition percentage using Equation (3). […]

Where “and” joins values, the source holds several entries; their conditions need not be identical. Equal entries are not always repeated. Where two headings read alike, the source gives them in different places.

One may read the IC50 as the point on the concentration scale where inhibition reaches its midpoint. Regarding `COc1ccc2cc3[n+](cc2c1O)CCc1cc2c(cc1-3)OCO2` [Compound 3, berberrubine], the figures for the IC50 in series [1], in [2] and in [3] were 5.61 µM, 62.7 µM and greater than 300 µM, respectively.

For the compound `COc1ccc2c(c[n+](C)c3c4cc5c(cc4ccc23)OCO5)c1OC` [Compound 4, chelerythrine], the IC50 in series [1] is 11.7 µM; in series [2], 89.6 µM; in series [3] it was greater than 300 µM.

As for `COc1ccc2cc3[n+](cc2c1OC)CCc1cc2c(cc1-3)OCO2` [Compound 6, berberine], the IC50 in [1] was 1.24 µM; in series [2], 386 µM; in series [3], greater than 300 µM; in series [4] it was 0.72 mg/L.

On to `COc1c(O)ccc2cnc3c4cc5c(cc4ccc3c12)OCO5` [Compound 9, zanthoxyline], for which the results for the half-inhibitory concentration (IC50) in series [1], in [2] and in series [3] were 21.5 µM, 8.37 µM and 289 µM, respectively.

As for `CCOCn1c(-c2ccc(Cl)cc2)c(C#N)c(Br)c1C(F)(F)F` [chlorfenapyr], the “Corrected mortality after 24 h” value in series [5] worked out at 93.3%. For the same compound, the “Corrected average mortality after 72 h” value in series [6] worked out at 24.6%; in series [8] (0.06% chlorfenapyr alone (PCA)), 20.9%. Also, the “Repellency after 72 h” value in [7] is listed as “lowest repellency”. The “Average fecundity per female over 5 days compared to controls AC and RC” value in series [9] is reported as “statistically significant reduction”. The LD50 in series [10] (two resistant strains of T. urticae, listed as clorfenapyr) is 0.08% and 0.29%.

On to `COCCOC(=O)C(C#N)(C(=O)c1ccccc1C(F)(F)F)c1ccc(C(C)(C)C)cc1` (stereo not shown) [cyflumetofen], for which, in [8] (0.075% cyflumetofen alone (PCB)), the “Corrected average mortality after 72 h” value is 32.5%. Further, the “Average fecundity per female over 5 days compared to controls AC and RC” value in series [9] is recorded as “statistically significant reduction”. The results for the LD50 in series [10] (susceptible strain of T. urticae) and in series [11] were 0.00011% and 0.0016%, respectively.

On to abamectin, for which the “Average fecundity per female over 5 days compared to controls AC and RC” value in [9] is given as “statistically significant reduction”.

Take fagaridine [Compound 5]: the IC50 in series [1] is 112 µM; in [2] it was 20.9 µM; in [3], greater than 300 µM; in [12], 14.6 µM.
